Measured values reported in paper PMC9822022, “Biginelli Reaction Synthesis of Novel Multitarget-Directed Ligands with Ca^2+ Channel Blocking Ability, Cholinesterase Inhibition, Antioxidant Capacity, and Nrf2 Activation” (Molecules, 2022).
Several values for one entry are separate records, joined by “and”; a condition that tells them apart may be missing. Equal values may be shown once.

Legend:
Nrf2-ARE [1] = test: Nrf2/ARE-luciferase reporter cell assay; assay type: cell-based; conditions: for Induction of the Nrf2 transcriptional pathway: 24 h, 5, 10 and 50 μM (up to 100 μM for BIGI 5d); for CD (concentration required to double the specific luciferase reporter activity): 24 h treatment, means ± SEM
Procedure: The Nrf2-ARE-activating effect of BIGI 4b, BIGI 4d, BIGI 5b, and BIGI 5d, the most balanced compounds against cholinesterase inhibition, calcium channel blockade, and antioxidant power, was determined in vitro using a cell-based luciferase assay in the AREc32 cell line, which represents a good model for the redox-dependent activation of Nrf2 [31]. TBHQ was used as the positive control.
AREc32 cells were treated over 24 h with increasing concentrations of each compound (5, 10, 50, 100 μM) and then luciferase activity was measured. Preliminarily, the cytotoxicity of compounds against AREc32 cells were evaluated, showing no toxicity until 50 μM for compounds BIGI 4b, BIGI 4d, and BIGI 5b and until 100 μM for compound BIGI 5d.
CD values (i.e., the concentration required to double the specific activity of the luciferase reporter) were calculated to compare the relative potencies.
Treatment of stable ARE-luciferase reporter cells with the tested compounds and evaluation of the luciferase activity: The NRF2/ARE-luciferase reporter HEK293 stable cell line (Signosis, Santa Clara, CA, USA) was maintained in Dulbecco’s MEM high-glucose (DMEM) medium supplemented with 10% FBS and penicillin–streptomycin at 37 °C in 95% air/5% CO2. For treatment, the cells were seeded at a density of 2 × 10^4 per well in 96-well white microtiter plates. After 48 h, the culture medium was replaced with fresh DMEM supplemented with 0.1% FBS containing different concentrations of the tested compounds or DMSO (0.1%) in duplicate. Luciferase activity was measured after 24 h of treatment using the Bright-Glo luciferase assay system (Promega) according to the manufacturer’s instructions.

[2] = ORAC-FL antioxidant assay; conditions: for ORAC: Trolox equivalents, mean (n = 3) ± SEM; for times less active than melatonin (ORAC): on average
Procedure: The antioxidant activity of compounds BIGI 4a-d and BIGI 5a-d was determined by the ORAC-FL method. [29] Their radical scavenging properties are expressed as Trolox equivalents (TE) units.
The antioxidant activity of hybrids BIGI 4a-d and BIGI 5a-d was measured by ORAC-FL assay using fluorescein as a fluorescent probe. Briefly, fluorescein and antioxidant were incubated in a black 96-well microplate (Nunc) for 15 min at 37 °C. 2,2′-Azobis(amidinopropane) dihydrochloride was then added quickly using the built-in injector of a Varioskan Flash plate reader (Thermo Scientific, Waltham, MA, USA). […] All the reactions were made in triplicate and at least three different assays were performed for each sample.

[3] = molecular target: eqBuChE (BuChE from equine serum) (Equus caballus, UniProt P81908); test: biochemical; conditions: ± SD
Sequence of eqBuChE (BuChE from equine serum) (P81908 whole entry): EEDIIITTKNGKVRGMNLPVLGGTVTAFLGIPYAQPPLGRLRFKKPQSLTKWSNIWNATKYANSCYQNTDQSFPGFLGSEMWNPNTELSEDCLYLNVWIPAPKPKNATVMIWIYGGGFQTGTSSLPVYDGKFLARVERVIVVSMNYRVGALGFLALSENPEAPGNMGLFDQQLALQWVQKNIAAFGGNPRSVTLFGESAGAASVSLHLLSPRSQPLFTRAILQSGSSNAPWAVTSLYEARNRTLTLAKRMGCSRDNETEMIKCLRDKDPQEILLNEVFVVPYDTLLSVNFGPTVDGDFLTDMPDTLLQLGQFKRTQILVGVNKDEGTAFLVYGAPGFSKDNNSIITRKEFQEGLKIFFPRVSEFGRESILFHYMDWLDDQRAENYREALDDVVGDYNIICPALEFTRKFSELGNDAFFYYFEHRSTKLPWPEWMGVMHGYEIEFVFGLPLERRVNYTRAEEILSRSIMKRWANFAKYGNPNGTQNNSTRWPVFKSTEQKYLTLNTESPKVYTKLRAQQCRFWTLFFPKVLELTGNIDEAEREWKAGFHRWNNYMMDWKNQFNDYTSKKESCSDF

[4] = molecular target: T1, hAChE (AChE from human erythrocytes) (Homo sapiens, UniProt P22303); test: biochemical; assay type: biochemical; conditions: for IC50: ± SD
T1 construct: AChE from human erythrocytes; purchased Sigma Aldrich; host or cells: human erythrocytes (natural source)
T1 sequence (P22303 other isoform, or with tags, fused parts or gaps): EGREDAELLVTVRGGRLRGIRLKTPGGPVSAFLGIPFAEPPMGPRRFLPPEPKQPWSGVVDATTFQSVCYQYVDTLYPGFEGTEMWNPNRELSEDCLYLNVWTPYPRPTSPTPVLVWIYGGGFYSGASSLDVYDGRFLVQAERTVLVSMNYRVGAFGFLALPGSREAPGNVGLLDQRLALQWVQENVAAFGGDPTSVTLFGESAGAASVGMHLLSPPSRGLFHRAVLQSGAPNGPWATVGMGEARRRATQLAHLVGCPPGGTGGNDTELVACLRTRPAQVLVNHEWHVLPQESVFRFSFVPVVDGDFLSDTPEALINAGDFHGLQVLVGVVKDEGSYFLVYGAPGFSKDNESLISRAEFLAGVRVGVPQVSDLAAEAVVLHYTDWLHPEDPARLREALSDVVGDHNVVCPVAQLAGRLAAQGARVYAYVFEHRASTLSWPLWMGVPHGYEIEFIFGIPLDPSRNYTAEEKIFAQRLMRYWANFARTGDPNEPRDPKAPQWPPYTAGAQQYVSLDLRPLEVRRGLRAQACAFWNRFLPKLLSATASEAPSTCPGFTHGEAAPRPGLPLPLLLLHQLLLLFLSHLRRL
Procedure: The inhibitory capacity of the compounds on AChE biological activity was evaluated using the spectrometric method of Ellman [27]. Acetyl- or butyrylthiocholine iodide and 5,5-dithiobis- (2-nitrobenzoic) acid (DTNB) were purchased from Sigma Aldrich. […] AChE from human erythrocytes (buffered aqueous solution, ≥500 units/mg protein (BCA), Sigma Aldrich) was diluted in 20 mM HEPES buffer, pH 8, 0.1% Triton X-100, to obtain an enzyme solution with 0.25 unit/mL enzyme activity. In the procedure, 100 µL of 0.3 mM DTNB dissolved in phosphate buffer pH 7.4 was added to the 96-well plate followed by 50 µL of test compound solution and 50 µL of enzyme (0.05 U final). After 5 min of preincubation at 25 °C, the reaction was then initiated by the injection of 50 µL of 10 mM acetyl- or butyrylthiocholine iodide solution. […] Assays were performed in singlicate during three independent tests, with a blank containing all components except acetyl- or butyrylthiocholine in order to account for non-enzymatic reaction. The reaction slopes were compared, and the percent inhibition due to the presence of test compounds was calculated by the following: 100 − (vi/v0 × 100) where vi is the rate calculated in the presence of inhibitor and v0 is the enzyme activity.

calcium channel = test: Ca+2 channel blockade, FLIPR Calcium 6 in SH-SY5Y cells; assay type: cell-based; conditions: KCl/CaCl2 triggered, ± SD
Procedure: The Ca^+2 channel blockade capacity of compounds BIGI 4a-d and BIGI 5a-d, and nimodipine as standard, at 10 μM concentration was carried out following the usual methodology [28].
The evaluation of the calcium channel blockade of compounds BIGI 4a-d and BIGI 5a-d was carried out using FLIPR Calcium 6 indicator according to previously described protocols [35, 36]. In brief, FLIPR-loaded SH-SY5Y cells were exposed to nimodipine (10 µM, reference inhibitor), DMSO (0.1%, vehicle), or our compounds of interest (10 µM) for 10 min. […] Data were gathered in three independent experiments with eight technical replicates per experiment. Outlier detection by Grubbs’ test was performed and outlying values were excluded from further analysis.

AREc32 cells = test: Cytotoxicity against reporter cells (MTT); assay type: cell-based
Procedure: […]. Preliminarily, the cytotoxicity of compounds against AREc32 cells were evaluated, showing no toxicity until 50 μM for compounds BIGI 4b, BIGI 4d, and BIGI 5b and until 100 μM for compound BIGI 5d.
Treatment of stable ARE-luciferase reporter cells with the tested compounds and evaluation of the cellular viability: The NRF2/ARE-luciferase reporter HEK293 stable cell line was seeded and treated as described for the luciferase activity determination, except that transparent culture plates were used instead of white plates. After 24 h of incubation with the tested compounds, the percent of cell viability was measured using MTT assay.

Nrf2-ARE [5] = test system: Nrf2-ARE; set-up: method as in PMID 31838896; conditions: cited from earlier work

Compound	fold less active than TBHQ (CD) (Nrf2-ARE [1])	times more active than melatonin (CD) (Nrf2-ARE [1])	Induction of the Nrf2 transcriptional pathway (Nrf2-ARE [1])	CD (concentration required to double the specific luciferase reporter activity) (Nrf2-ARE [1])	CD (concentration required to double the specific luciferase reporter activity) (Nrf2-ARE [1]; listed as 5d)	ORAC [2]	IC50 [3]	IC50 [4]	Calcium Antagonism (% Inhibition at 10 μM) (calcium channel)	Cytotoxicity: no toxicity until concentration (AREc32 cells)	CD (Nrf2-ARE [5])	fold less active than Donepezil (hAChE) [4]	times less active than melatonin (ORAC) [2]
C#CCCOc1ccc(C2NC(=S)N(CCC3CCN(Cc4ccccc4)CC3)C(C)=C2C(=O)OCC)cc1 (stereo not shown) [BIGI 5d, Ethyl 1-(2-(1-benzylpiperidin-4-yl)ethyl)-4-(4-(but-3-yn-1-yloxy)phenyl)-6-methyl-2-thioxo-1,2,3,4-tetrahydropyrimidine-5-carboxylate]	42 fold	2 times	able to successfully induce the Nrf2 transcriptional pathway	33.4 ± 4.8 µM	33.4 µM	1.57 ± 0.13 TE	8.54 ± 0.71 µM	1.271 ± 0.005 µM	68 ± 12%	100 µM	–	–	–
C#CCCOc1ccc(C2NC(=O)N(CC3CCN(Cc4ccccc4)CC3)C(C)=C2C(=O)OCC)cc1 (stereo not shown) [BIGI 4c, Ethyl 1-((1-benzylpiperidin-4-yl)methyl)-4-(4-(but-3-yn-1-yloxy)phenyl)-6-methyl-2-oxo-1,2,3,4-tetrahydropyrimidine-5-carboxylate]	–	–	–	–	–	0.98 ± 0.03 TE	> 10 µM	> 1 µM	40± 13%	–	–	–	–
COc1ccc2[nH]cc(CCNC(C)=O)c2c1 [Melatonin]	–	–	–	–	–	–	–	–	–	–	60 µM	–	–
CC(C)(C)c1cc(O)ccc1O [TBHQ, reference compound]	–	–	–	0.8 µM and 0.8 ± 0.2 µM	–	–	–	–	–	–	–	–	–
C#CCOc1ccc(C2NC(=S)N(CCC3CCN(Cc4ccccc4)CC3)C(C)=C2C(=O)OCC)cc1 (stereo not shown) [BIGI 5b, Ethyl 1-(2-(1-benzylpiperidin-4-yl)ethyl)-6-methyl-4-(4-(prop-2-yn-1-yloxy)phenyl)-2-thioxo-1,2,3,4-tetrahydropyrimidine-5-carboxylate]	–	–	able to successfully induce the Nrf2 transcriptional pathway	13.5 µM and 13.5 ± 9.1 µM	–	1.41 ± 0.06 TE	5.43 ± 0.24 µM	0.352 ± 0.015 µM	74 ± 16%	50 µM	–	27 fold	–
C#CCOc1ccc(C2NC(=O)N(CC3CCN(Cc4ccccc4)CC3)C(C)=C2C(=O)OCC)cc1 (stereo not shown) [BIGI 4a, Ethyl 1-((1-benzylpiperidin-4-yl)methyl)-6-methyl-2-oxo-4-(4-(prop-2-yn-1-yloxy)phenyl)-1,2,3,4-tetrahydropyrimidine-5-carboxylate]	–	–	–	–	–	1.44 ± 0.06 TE	31.2 ± 1.7 µM	> 1 µM	45 ± 11%	–	–	–	–
C#CCOc1ccc(C2NC(=O)N(CCC3CCN(Cc4ccccc4)CC3)C(C)=C2C(=O)OCC)cc1 (stereo not shown) [BIGI 4b, Ethyl 1-(2-(1-benzylpiperidin-4-yl)ethyl)-6-methyl-2-oxo-4-(4-(prop-2-yn-1-yloxy)phenyl)-1,2,3,4-tetrahydropyrimidine-5-carboxylate]	–	–	able to successfully induce the Nrf2 transcriptional pathway	7.1 µM and 7.1 ± 0.8 µM	–	1.60 TE and 1.60 ± 0.15 TE	4.78 ± 0.58 µM	0.342 ± 0.064 µM	67 ± 10%	50 µM	–	27 fold	~1.4 times
C#CCOc1ccc(C2NC(=S)N(CC3CCN(Cc4ccccc4)CC3)C(C)=C2C(=O)OCC)cc1 (stereo not shown) [BIGI 5a, Ethyl 1-((1-benzylpiperidin-4-yl)methyl)-6-methyl-4-(4-(prop-2-yn-1-yloxy)phenyl)-2-thioxo-1,2,3,4-tetrahydropyrimidine-5-carboxylate]	–	–	–	–	–	1.35 ± 0.04 TE	7.64 ± 0.79 µM	> 1 µM	46 ± 18%	–	–	–	–
COCCOC(=O)C1=C(C)NC(C)=C(C(=O)OC(C)C)C1c1cccc([N+](=O)[O-])c1 (stereo not shown) [Nimodipine, reference compound]	–	–	–	–	–	–	–	–	50± 10%	–	–	–	–
C#CCCOc1ccc(C2NC(=O)N(CCC3CCN(Cc4ccccc4)CC3)C(C)=C2C(=O)OCC)cc1 (stereo not shown) [BIGI 4d, Ethyl 1-(2-(1-benzylpiperidin-4-yl)ethyl)-4-(4-(but-3-yn-1-yloxy)phenyl)-6-methyl-2-oxo-1,2,3,4-tetrahydropyrimidine-5-carboxylate]	–	–	able to successfully induce the Nrf2 transcriptional pathway	7.7 µM and 7.7 ± 2.9 µM	–	1.85 TE and 1.85 ± 0.16 TE	6.63 ± 0.71 µM	0.462 ± 0.04 µM	50 ± 13%	50 µM	–	–	~1.4 times
C#CCCOc1ccc(C2NC(=S)N(CC3CCN(Cc4ccccc4)CC3)C(C)=C2C(=O)OCC)cc1 (stereo not shown) [BIGI 5c, Ethyl 1-((1-benzylpiperidin-4-yl)methyl)-4-(4-(but-3-yn-1-yloxy)phenyl)-6-methyl-2-thioxo-1,2,3,4-tetrahydropyrimidine-5-carboxylate]	–	–	–	–	–	1.75 TE and 1.75 ± 0.06 TE	33.8 ± 7.89 µM	> 1 µM	63 ± 18%	–	–	–	~1.4 times
